Source: patent US20230357312A1, “Borylated Di-Peptide Amino Acid compositions for use in Boron Neutron Capture Therapy and methods thereof” (TAE Life Sciences, priority 2021, published 2023)
Values after ≈ are worked out from the molar mass of the structure shown.

Tests used:
intracranial tumor = conditions: BNCT, Japan, 1968; cited from earlier work
CT26 xenografts [1] = test: BNCT study, 12 or 6 minute irradiation at 5 MW; assay type: in vivo, BALB/c mice; conditions: 200 mg/kg, monitored to 22 days
Method: Following one (1) hour of treatment time, mice were irradiated for either 12 minutes (33(A)) or 6 minutes (33(B)) at the Kyoto University Research Reactor (Kyoto, Japan) 1 set at 5 megawatts. Data are the means ± SD of 3 mice per treatment group. Tumors were measured for growth out to 22 days.

CT26 xenografts [2] = test: BNCT tumor regression study, 6 minute irradiation; assay type: in vivo, BALB/c mice; conditions: 400 mg/kg, 6 minutes irradiation, group sacrificed by day 18
Method: In this experiment, CT26 xenografts in BALB/c mice were dosed with 400 mg/kg of BPA or 900 mg/kg of His-BPA or BPA-BPA. Following one (1) hour treatment time, mice were irradiated for 6 minutes at the Kyoto University Research Reactor (Kyoto, Japan) 1 set at 5 megawatts. Data are the means ± SD of 3 mice per treatment group. Tumors were measured for growth out to 36 days and examined for tumor presence at 40 days. BPA and control groups were sacrificed at day 18 due to excessive tumor growth.

[3] = cited from earlier work
FaDu cells [4] = test: Uptake inhibition by PEPT1 competitive inhibitor Gly-SAR; assay type: cell-based, human; conditions: 0.8 mM test compound, with and without Gly-SAR
Method: (§1) In this experiment, uptake of BPA and dipeptide His-BPA (0.8 mM of each) was carried out in FaDu and ASPC-1 in the presence and absence of the indicated concentrations of PEPT1 dipeptide transporter competitive inhibitor Gly-SAR. Normalized boron uptake was determined as in FIG. 15.

AsPC-1 cells = test: as above; assay type: cell-based, human; conditions: 0.8 mM test compound, with and without Gly-SAR
Method: as §1

FaDu cells [5] = test: Borylated dipeptide uptake in cancer cell lines (boron by ICP-OES); assay type: cell-based, human; conditions: 2.5 mM in HBSS, 37° C., 2 hrs; FaDu: high LAT1, PEPT1 negative
Method: The indicated cancer cell line (A) or FaDu cells (B) were harvested from culture and washed twice with PBS. Cell lines were adjusted to 2 million cells/ml in Hanks Balanced Salt Solution (HBSS). BPA or dipeptide boron compounds were added to cells at the final concentration of 2.5 mM in HBSS and the treated cells were incubated at 37° C. 5% CO2 for 2 hrs with shaking. The cells were collected by centrifugation; washed with cold PBS twice and reconstituted in 1 ml of cold PBS. Then, 50 µl of cell suspension was removed, pelleted, and lysed using RIPA buffer and the protein concentration was determined using BCA assay. The remaining 950 µl was used for boron compounds uptake measurements using ICP-OES.
To this end, 0.5 mL of concentrated nitric acid was added to each cell pellet in a 15 mL conical tube. The tubes were capped and placed in an oven set at 80° C. for 3 hours. 2 mL of water was added’ to each sample to bring the final volume up to 2.5 mL. The boron content in each sample was then measured on an Agilent 5110 ICP-OES using an Agilent SPS4 Autosampler for sample introduction.
The data was analyzed using Agilent’s ICP Expert Software, version 7.4.2.10790. Boron was measured axially at the 249.772 nm wavelength and the internal standard Beryllium was measured axially at the 313.042 nm wavelength. Beryllium was tee-ed into the solution at 1:5 the flowrate before introduction to the spray chamber. A standard curve using 1000, 100, 10, 1 and 0 ppb of boron was used to calculate the concentration of boron in each sample. Once determined, the boron measurement for each sample was normalized to protein content and final boron uptake results were expressed as ng boron/mg protein.
In another experiment, uptake of BPA and dipeptide His-BPA was carried out in FaDu, and ASPC-1 as described in FIG. 15. […] Accordingly, the data supports the finding that borylated dipeptides may be taken up efficiently in PEPT1 or other dipeptide transporter expressing cancers. See, FIG. 16(C).
In this experiment, the uptake of several dipeptide and dipeptide analogs was carried out in FaDu and ASPC-1 cells. Normalized boron uptake was determined as in FIG. 15. […] However, several dipeptides are still taken up in PEPT1 negative FaDu cells, although to a lower extent, which further confirms the proposition that an uptake mechanism does exist in FaDu cells for these dipeptides that is not PEPT1. See, FIG. 19.

FaDu cells [6] = test: Dipeptide degradation to BPA by HPLC; assay type: in vitro ADME, human; conditions: 2.5 mM in HBSS, 4 hrs at 37° C., FaDu cells, RP-HPLC/MS semi-quantitative
Method: In this experiment, to investigate whether dipeptides are converted to BPA, which is then taken up through its cognate transporter, evaluation of whether dipeptides remained intact in the tissue culture media in the presence of absence of cancer cells was made using the following protocols. Briefly, FaDu cells were harvested and counted. The cell number was adjusted to 50×10^5 / mL in the HBSS tissue culture medium using 1 mL per well. The cells were incubated at 37° C. in the 5% CO2 overnight. At the end, the supernatants were aspirated, and cells were rinsed with 1 mL PBS once. Each test article was prepared at 2.5 mM concentration in HBSS medium, and 0.4 mL was added to cells. After 4 hrs. at 37° C. the supernatants were harvested and analyzed by RP HPLC using an ACQUITY BEH C18 column 2.1 × […] (Waters) equipped with a matching guard column equilibrated with 2% aqueous acetonitrile/0.1% formic acid mobile phase. The dipeptides were separated in the gradient of 90% acetonitrile/10% water/0.1% formic acid to 20% in 6 min and identified by UV225 nm. The masses were confirmed by an online QDA mass spectrometer. Breakdown of the original dipeptide was quantitated by comparing with the control - the same dipeptide incubated in the same fashion in the absence of cells. Stabilities of BPA-BPA, Ala-BPA, and BPA-Ala were compared, and the formation of BPA was measured semi-quantitatively by RP-HPLC/MS.

In the case of sodium borocaptate [BSH], the 5-year survival rate (intracranial tumor) is given as 58%.

In the case of `N[C@@H](Cc1ccc(B(O)O)cc1)C(=O)O` [BPA, 4-Borono-L-phenylalanine, reference compound], the “tumor growth after BNCT” value (CT26 xenografts [1]; 6 minutes irradiation at 5 MW) is reported as “only modest tumor inhibition”, the “tumor growth after BNCT” value (CT26 xenografts [1]; 12 minutes irradiation at 5 MW) is reported as “significant and similar growth inhibition, even regression” and the “tumor growth after BNCT” value (CT26 xenografts [2]) is reported as “continued tumor growth”. The solubility ([3]; L-BPA without fructose) was 1700 µg/mL (≈ 8.13 mM), the “concentration achieved with fructose formulation” value ([3]; fructose formulation, quasi-stable solution) was 30000 µg/mL and the “effect of Gly-SAR on boron uptake” value (FaDu cells [4]) was “no effect”. The “effect of Gly-SAR on boron uptake” value (AsPC-1 cells) was “no effect” and the “boron uptake (compared in words)” value (FaDu cells [5]) was “to a much greater extent than His-BPA”.

With `CC(NC(=O)[C@@H](N)Cc1ccc(B(O)O)cc1)C(=O)O` (some centres unmarked) [BPA-Ala, BPA-Alanine] the “relative conversion into BPA in the presence of cells” value (FaDu cells [6]) was “Ala-BPA > BPA-BPA > BPA-Ala” and the “boron uptake (compared in words)” value (FaDu cells [5]) was “to a lower extent than BPA”.

For `C[C@H](N)C(=O)N[C@@H](Cc1ccc(B(O)O)cc1)C(=O)O` [Ala-BPA, Alanine-BPA], the “relative conversion into BPA in the presence of cells” value (FaDu cells [6]) was “Ala-BPA > BPA-BPA > BPA-Ala” and the “boron uptake (compared in words)” value (FaDu cells [5]) was “to a lower extent than BPA”.

For `CC(C)C[C@H](N)C(=O)N[C@@H](Cc1ccc(B(O)O)cc1)C(=O)O` [Leu-BPA, Leucine-BPA], the “boron uptake (compared in words)” value (FaDu cells [5]) was “to a lower extent than BPA”.
